Measured values reported in patent EP4744680A1, “TARGETED CHEMICAL DRUG AND PREPARATION METHOD THEREFOR, PHARMACEUTICAL COMPOSITION, AND USE OF TARGETED CHEMICAL DRUG” (Bai Yao Zhi Da (Beijing) Nanobio Technology Co., Ltd., priority 2023, dated 2025).

How the values were obtained:
N87 gastric cancer [1] = assay: In vivo antitumor efficacy in an N87 gastric cancer mouse model (drug of Example 1); parameters: species or system mouse (BALB/c nude); settings: 0.06mg i.v. (tail vein) twice per week for 5 weeks
Description: (1)..Cell culture: Tumor cells were cultured in RPMI-1640 medium supplemented with heat-inactivated 10% fetal bovine serum, 100 U/mL penicillin, 100 µg/mL streptomycin, and 2 mM L-glutamine, in a humidified incubator at 37 °C with 5% CO2.Subculture was performed every 3-4 days after confluence; tumor cells in logarithmic growth phase were used for in vivo inoculation. (2).Tumor cell inoculation and grouping: Tumor cells (1 × 10^7) resuspended in PBS: Matrigel were inoculated subcutaneously into the right flank of each mouse.When tumors reached approximately 80-100 mm^3, animals were randomized into groups for dosing. […] (3).Dosing Regimen: Table 22
The dosing volume is 200 µL per 20 g mouse, with the administered dose calculated on a body-weight basis; the observation period is 60 days, adjustable according to the condition of the animals and tumor status.
• a. Tumor volume: Measured twice weekly using vernier calipers. The long and short diameters were recorded; tumor volume was calculated as: Volume = 0.5 × length × (width)^2. • b. Post-administration reactions in animals: At each tumor-measurement time point, body weight was recorded.Changes in body weight relative to dosing time were documented.Survival and general health (e.g., activity, feeding) were monitored throughout the dosing period. • c. Tumor excision, weighing, and photography: at the end of the study, mice were euthanized; tumors were excised, photographed and collected; specimens were fixed or snap-frozen as required. • a) Photograph each animal post-euthanasia with tumor in situ; • b) Dissect and weigh each subcutaneous tumor; • c) Arrange all tumors on a white board according to group codes and photograph; then bisect longitudinally, realign by group code, and photograph again. • d) Tumors were snap-frozen or formalin-fixed per requirements. • d.
• a. […] Inhibition Rate of Tumor Weight (IRTW, %) IRTW (%) = (Wcontrol group−Wtreatment group)/Wcontrol group × 100, [formula] where W is tumor weight.IRTW > 60% is considered effective.

N87 gastric cancer [2] = assay: In vivo antitumor efficacy in an N87 gastric cancer mouse model (drug of Example 5); parameters: species or system mouse (BALB/c nude); settings: 0.12mg i.v. (tail vein) once every 5 days, 5 administrations
Description: • 1. Cell culture and preparation: Thaw cells and seed into the corresponding medium (RPMI-1640 basal medium + 10% FBS + 1% penicillin/streptomycin [P/S]).
• a) Discard the culture medium and gently rinse the cells with PBS twice. • b) Add an appropriate volume of 0.25% trypsin, digest in a 37 °C incubator for about 1-2 min until cells visibly round up; then add complete medium (RPMI-1640 + 10% FBS + 1% P/S) to neutralize the trypsin.Gently pipette to detach cells and subculture at the desired split ratio. • c) Split ratio: 1: 2-1: 4; the split ratio used in this experiment is 1: 3. • d) Passage frequency: Every 2-3 days, depending on seeding density and growth.
• a) Harvest cells in logarithmic growth phase (~80-90% confluence recommended); • b) After trypsinization, add complete medium to terminate digestion; collect the suspension into centrifuge tubes and centrifuge at 1, 000 rpm for 5 min; • c) Wash the cell pellet twice with pre-chilled PBS and centrifuge each time; • d) Resuspend the pellet in PBS or serum-free medium to a final concentration of 2 × 10^7 cells/mL.
• Injection site: Subcutaneous, right axillary-dorsal region. • Inoculum: 3 × 10^6 cells/mouse; 30 mice inoculated. • Injection volume: 0.1 mL. • Method: Tumor cell inoculation.
Thaw and expand N87 cells to the required quantity; adjust the cell concentration to 3 × 10^7 cells/mL with sterile PBS and keep on ice until use. Using a single-use sterile 1 mL syringe, draw 0.1 mL of the cell suspension and inject subcutaneously into the right axillary-dorsal region of each mouse. The day of inoculation is designated Day 0 (D0).
• a)lmmediately before injection, thoroughly disperse the tumor cell suspension by pipetting to prevent cell clumping, which can reduce viability; • b)Restrain the mouse by grasping the dorsal neck skin with the thumb and forefinger while holding the tail with the little finger; • c)Using a disposable 1 mL syringe, inject the suspension subcutaneously; advance the needle slightly deeper under the skin (approximately 1 cm) to minimize leakage of the suspension from the needle tract;
Tumor size is measured three times per week using a vernier caliper. The long diameter (a) and the short diameter (b) are recorded. Tumor volume is calculated as: V=0.5×a×b^2.
RTV is calculated as: RTV = Vt/V0, where V0 is the tumor volume at grouping and initial dosing (D0), and Vt is the tumor volume at each measurement time point.
IRTW (%) = (Wcontrol group−Wtreatment group)/Wcontrol group × 100, [formula] where W denotes tumor weight.IRTW%>60% is considered effective.

[3] = Body weight in the comparative N87 study; assay type: in vivo, mouse (BALB/c-nu); settings: 0.12mg i.v. (tail vein) once weekly for 6 weeks
HepG2 liver cancer = assay: In-vivo efficacy study in the HepG2 mouse liver cancer model (drug of Example 6); parameters: species or system mouse (BALB/cAnSlacNifdc-nu); settings: for Tumor growth inhibition rate (TGI, %) at different days post-inoculation: 6 mg/kg (0.12 mg/mouse) i.v. (tail vein) once weekly
Source text: • Species/strain: BALB/cAnSlacNifdc-nu • Sex: Male • Body weight: 16-18 g
1).Inoculation and grouping: For the HepG2 mouse liver cancer model, male BALB/cAnSlacNifdc-nu nude mice, weighing 16.0-18.0 g, were used.Under aseptic conditions, HepG2 tumor tissue was excised and cut into 2.0mm×2.0mm×2.0mm tumor blocks, which were uniformly implanted subcutaneously into the left axillary dorsal region of nude mice. The day of implantation was designated as Day 0 (D0).When the tumor volume reached approximately 250.0 mm^3 (D7), animals were randomized by tumor volume into three groups: A (control group), B, and C (treatment groups), with 8 animals per group.On the day of randomization, all animals began intravenous (tail-vein) dosing once weekly for a total of 3 administrations. 2.Dosing regimen: Table 37
Tumor size is measured twice per week using a vernier caliper. The long diameter (a) and short diameter (b) are recorded. Tumor volume is calculated as: V=0.5×a×b^2.
RTV = Vt /V0 , [formula] where V0 is the tumor volume at grouping/first dosing (D0), and Vt is the tumor volume at each measurement time point.
6).Tumor weight: At the end of the study (D23), the remaining animals were euthanized by cervical dislocation. Tumors were excised, weighed, and photographed.

SMILES: COc1cccc2c1C(=O)c1c(O)c3c(c(O)c1C2=O)C[C@@](O)(C(=O)CO)C[C@@H]3O[C@H]1C[C@H](N)[C@@H](O)[C@H](C)O1 [Epirubicin drug substance (API), Epirubicin]
- Tumor Growth Inhibition Rate at Different Days Post-Inoculation (%) (N87 gastric cancer [1]; Day 9): 8.44%
- Tumor Growth Inhibition Rate at Different Days Post-Inoculation (%) (N87 gastric cancer [1]; Day 13): 0.40%
- Tumor Growth Inhibition Rate at Different Days Post-Inoculation (%) (N87 gastric cancer [1]; Day 17): 6.68%
- Tumor Growth Inhibition Rate at Different Days Post-Inoculation (%) (N87 gastric cancer [1]; Day 20): 7.83%
- Tumor Growth Inhibition Rate at Different Days Post-Inoculation (%) (N87 gastric cancer [1]; Day 23): 12.46%
- Tumor Growth Inhibition Rate at Different Days Post-Inoculation (%) (N87 gastric cancer [1]; Day 27): 23.34%
- Tumor Growth Inhibition Rate at Different Days Post-Inoculation (%) (N87 gastric cancer [1]; Day 30): 25.87%
- Tumor Growth Inhibition Rate at Different Days Post-Inoculation (%) (N87 gastric cancer [1]; Day 34): 31.16%
- Tumor Growth Inhibition Rate at Different Days Post-Inoculation (%) (N87 gastric cancer [1]; Day 37): 36.26%
- Inhibition rate (%) at different post-inoculation days (N87 gastric cancer [2]; Day 9): 17.5%
- Inhibition rate (%) at different post-inoculation days (N87 gastric cancer [2]; Day 11): 3.5%
- Inhibition rate (%) at different post-inoculation days (N87 gastric cancer [2]; Day 13): 10.2%
- Inhibition rate (%) at different post-inoculation days (N87 gastric cancer [2]; Day 16): 24.1%
- Inhibition rate (%) at different post-inoculation days (N87 gastric cancer [2]; Day 18): 32.9%
- Inhibition rate (%) at different post-inoculation days (N87 gastric cancer [2]; Day 20): 36.4%
- Inhibition rate (%) at different post-inoculation days (N87 gastric cancer [2]; Day 23): 34.6%
- Tumor weight (N87 gastric cancer [2]; end of study): 0.1751 ± 0.13 g
- IRTW% (N87 gastric cancer [2]; inhibition rate of tumor weight): 71.987%
- Body-weight difference (g) between Day 41 and Day 6 [3]: 3.29 g
- Tumor weight inhibition rate, IRTW (%) (HepG2 liver cancer; 23 days post-HepG2 inoculation, 6 mg/kg (0.12 mg/mouse) i.v. once weekly, 3 administrations): 25.20%
- Tumor growth inhibition rate (TGI, %) at different days post-inoculation (HepG2 liver cancer; Day 10, 3 administrations): 16.33%
- Tumor growth inhibition rate (TGI, %) at different days post-inoculation (HepG2 liver cancer; Day 14, 3 administrations): 36.16%
- Tumor growth inhibition rate (TGI, %) at different days post-inoculation (HepG2 liver cancer; Day 21, 3 administrations): 24.72%
- Tumor growth inhibition rate (TGI, %) at different days post-inoculation (HepG2 liver cancer; Day 23, 3 administrations): 22.08%
- tumor growth inhibition rate (calculated based on tumor weight and tumor volume) (HepG2 liver cancer; end of the study (D23), intravenous injection): less than 60%
